We go through one molecule from article PMC6669322, “Small Molecule Binding to Alzheimer Risk Factor CD33 Promotes Aβ Phagocytosis” (iScience, 2019).

The test system of one test is CD33. The arrangement: method as in Rillahan et al., 2014. Conditions: estimated, flow cytometry assay; ref Rillahan et al., 2014; cited from earlier work.
For a further test, the target named is CD33 R119A (Homo sapiens, UniProt P20138, R119A). Description: surface plasmon resonance (SPR), CD33 R119A mutant. The test is classed as binding. The arrangement: DNA encoding D18 to H143 of human CD33; octa-histidine tag with TEV protease cleavage site (N); made in house; host or cells: E. coli BL21* (the general protein production text; the R119A protein is not described on its own). Conditions: P22 as analyte, captured CD33 R119A. The text has this: We next performed surface plasmon resonance (SPR) measurements on P22 binding to CD33 wild-type, and selected mutants, to obtain detailed kinetic data (see Transparent Methods). The CD33 V-set domain has a free cysteine residue (C36), which caused anomalous results in some of our SPR experiments due to disulfide-linked oligomers forming in solution.
P22 (β-D-Glucopyranoside, 2-aminoethyl O-[N-[2-(4-cyclohexyl-1H-1,2,3-triazol-1-yl)acetyl]-9-deoxy-9-[(4-hydroxy-3,5-dimethylbenzoyl)amino]-α-neuraminosyl] (2→6)-O-β-D-galactopyranosyl-(1→4)-; CAS registry number [1809735-27-0]) was synthesized as described by Paulson and co-workers (Rillahan et al., 2014). Biotinylated P22 (Figure S1C) was prepared by treatment of a solution of P22 (12 mg, 0.012 mmol) in dimethylformamide (1 mL), with DIPEA (8.6 µL, […]) followed by addition of (+)- biotin N-hydroxysuccinimide ester (4.2 mg, 0.012 mmol), the resulting reaction mixture was then stirred for 2 h at RT. After which the reaction mixture was concentrated in vacuo and purified by reverse phase, performed via preparative HPLC (Stationary phase: RP XBridge Prep C18 OBD- 5µm,19x150mm, Mobile phase: 0.25% NH4HCO3 solution in water, CH3CN) to afford Biotin-P22 (9 mg, yield 60.9%). […]
(SPR reads the build-up and loss of mass on a sensor chip optically.)

Sequence of CD33 R119A (P20138 18-143 R119A): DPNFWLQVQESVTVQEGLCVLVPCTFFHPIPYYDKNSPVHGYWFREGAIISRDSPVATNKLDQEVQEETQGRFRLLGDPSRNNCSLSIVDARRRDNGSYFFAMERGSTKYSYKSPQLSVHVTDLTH

As for `Cc1cc(C(=O)NC[C@@H](O)[C@@H](O)[C@@H]2O[C@@](OC[C@H]3O[C@@H](O[C@H]4[C@H](O)[C@@H](O)[C@H](OCCN)O[C@@H]4CO)[C@H](O)[C@@H](O)[C@H]3O)(C(=O)O)C[C@H](O)[C@H]2NC(=O)Cn2cc(C3CCCCC3)nn2)cc(C)c1O` [P22, β-D-Glucopyranoside, 2-aminoethyl O-[N-[2-(4-cyclohexyl-1H-1,2,3-triazol-1-yl)acetyl]-9-deoxy-9-[(4-hydroxy-3,5-dimethylbenzoyl)amino]-α-neuraminosyl] (2→6)-O-β-D-galactopyranosyl-(1→4)-], the IC50 – broadly, the concentration at which inhibition is half-maximal – in the test with CD33 was 11 µM. Besides, at CD33 R119A, the “binding observed by SPR” value is “no binding”.
